Data reported in patent US20230219904A1 (SYNGENTA CROP PROTECTION AG, priority 2020, published 2023).

Tests used:
Type in all cases: in vivo
Details in all cases: evaluated after 13 days
[1] = system: Ipomoea hederacea (IPOHE); assay: Pre-emergence herbicidal glasshouse test (Table B1)
In short: (§1)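 Plants were grown in standard soil under controlled glasshouse conditions (24/16° C, 14 hours light, 65% humidity) and treated by spraying at 500 g/h unless otherwise indicated. Percentage damage was evaluated after 13 days and expressed on a five-point scale.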

Setaria faberi (SETFA) [2] = assay: as above
In short: as §1

[3] = system: Echinochloa crus-galh (ECHCG); assay: as above
In short: as §1

[4] = system: Amaranthus retoflexus (AMARE); assay: as above
In short: as §1

[5] = system: Abutilon theophrasti (ABUTH); assay: as above
In short: as §1

[6] = system: Ipomoea hederacea (IPOHE); assay: Post-emergence herbicidal glasshouse test (Table B1)
In short: as §1

Setaria faberi (SETFA) [7] = assay: as above
In short: as §1

[8] = system: Echinochloa crus-galh (ECHCG); assay: as above
In short: as §1

[9] = system: Amaranthus retoflexus (AMARE); assay: as above
In short: as §1

[10] = system: Abutilon theophrasti (ABUTH); assay: as above
In short: as §1

SMILES | PRE Application IPOHE, percentage damage on five-point scale ([1]; applied) | PRE Application SETFA, percentage damage on five-point scale (Setaria faberi (SETFA) [2]; applied at 500 g/h) | PRE Application ECHCG, percentage damage on five-point scale ([3]; applied at 500 g/h) | PRE Application AMARE, percentage damage on five-point scale ([4]; applied at 500 g/h) | PRE Application ABUTH, percentage damage on five-point scale ([5]; applied at 500 g/h) | POST Application IPOHE, percentage damage on five-point scale ([6]; applied at 500 g/h) | POST Application SETFA, percentage damage on five-point scale (Setaria faberi (SETFA) [7]; applied at 500 g/h) | POST Application ECHCG, percentage damage on five-point scale ([8]; applied at 500 g/h) | POST Application AMARE, percentage damage on five-point scale ([9]; applied at 500 g/h) | POST Application ABUTH, percentage damage on five-point scale ([10]; applied at 500 g/h) | PRE Application IPOHE, percentage damage on five-point scale ([1]; applied at 125 g/ha) | PRE Application SETFA, percentage damage on five-point scale (Setaria faberi (SETFA) [2]; applied at 125 g/ha) | PRE Application ECHCG, percentage damage on five-point scale ([3]; applied at 125 g/ha) | PRE Application AMARE, percentage damage on five-point scale ([4]; applied at 125 g/ha) | PRE Application ABUTH, percentage damage on five-point scale ([5]; applied at 125 g/ha) | POST Application IPOHE, percentage damage on five-point scale ([6]; applied at 125 g/ha) | POST Application SETFA, percentage damage on five-point scale (Setaria faberi (SETFA) [7]; applied at 125 g/ha) | POST Application ECHCG, percentage damage on five-point scale ([8]; applied at 125 g/ha) | POST Application AMARE, percentage damage on five-point scale ([9]; applied at 125 g/ha) | POST Application ABUTH, percentage damage on five-point scale ([10]; applied at 125 g/ha)
CCn1nnnc1NC(=O)c1ccc(OC(F)(F)F)c(NC(=O)C2CC2)c1Cl [Compound 1.117] | 4 (4=60-79%) | 4 (4=60-79%) | 5 (5=80-100%) | 5 (5=80-100%) | 5 (5=80-100%) | 5 (5=80-100%) | 5 (5=80-100%) | 5 (5=80-100%) | 5 (5=80-100%) | 5 (5=80-100%) |  |  |  |  |  |  |  |  |  | 
CCn1nnnc1NC(=O)c1ccc(OC(F)(F)F)c(NC(=O)C(C)C)c1Cl [Compound 1.118] |  |  |  |  |  |  |  |  |  |  | 2 (2=20-39%) | 4 (4=60-79%) | 5 (5=80-100%) | 4 (4=60-79%) | 4 (4=60-79%) | 4 (4=60-79%) | 4 (4=60-79%) | 4 (4=60-79%) | 4 (4=60-79%) | 4 (4=60-79%)
CCC(=O)Nc1c(OC(F)(F)F)ccc(C(=O)Nc2nnnn2CC)c1Cl [Compound 1.119] | 4 (4=60-79%) | 2 (2=20-39%) | 5 (5=80-100%) | 5 (5=80-100%) | 5 (5=80-100%) | 5 (5=80-100%) | 5 (5=80-100%) | 5 (5=80-100%) | 5 (5=80-100%) | 5 (5=80-100%) |  |  |  |  |  |  |  |  |  | 
COCCC(=O)Nc1c(OC(F)(F)F)ccc(C(=O)Nc2nnnn2C)c1Cl [Compound 1.120] | 1 (1=0-19%) | 1 (1=0-19%) | 5 (5=80-100%) | 5 (5=80-100%) | 4 (4=60-79%) | 5 (5=80-100%) | 5 (5=80-100%) | 5 (5=80-100%) | 5 (5=80-100%) | 5 (5=80-100%) |  |  |  |  |  |  |  |  |  | 
CCCC(=O)Nc1c(OC(F)(F)F)ccc(C(=O)Nc2nnnn2C)c1Cl [Compound 1.121] | 2 (2=20-39%) | 1 (1=0-19%) | 5 (5=80-100%) | 5 (5=80-100%) | 4 (4=60-79%) | 5 (5=80-100%) | 5 (5=80-100%) | 5 (5=80-100%) | 5 (5=80-100%) | 5 (5=80-100%) |  |  |  |  |  |  |  |  |  | 
CCn1nnnc1NC(=O)c1ccc(OC(F)(F)F)c(NC(=O)C(F)F)c1Cl [Compound 1.122] |  |  |  |  |  |  |  |  |  |  | 1 (1=0-19%) | 3 (3=40-59%) | 4 (4=60-79%) | 5 (5=80-100%) | 3 (3=40-59%) | 2 (2=20-39%) | 3 (3=40-59%) | 4 (4=60-79%) | 5 (5=80-100%) | 4 (4=60-79%)
CCn1nnnc1NC(=O)c1ccc(OC(F)(F)F)c(NC(=O)c2ccccc2OC)c1Cl [Compound 1.123] |  |  |  |  |  |  |  |  |  |  | 2 (2=20-39%) | 4 (4=60-79%) | 3 (3=40-59%) | 3 (3=40-59%) | 3 (3=40-59%) | 5 (5=80-100%) | 4 (4=60-79%) | 4 (4=60-79%) | 4 (4=60-79%) | 4 (4=60-79%)
CC(C)C(=O)Nc1c(OC(F)(F)F)ccc(C(=O)Nc2nnnn2C)c1Cl [Compound 1.124] | 1 (1=0-19%) | 4 (4=60-79%) | 5 (5=80-100%) | 5 (5=80-100%) | 4 (4=60-79%) | 5 (5=80-100%) | 5 (5=80-100%) | 5 (5=80-100%) | 5 (5=80-100%) | 5 (5=80-100%) |  |  |  |  |  |  |  |  |  | 
COC(C)(C)C(=O)Nc1c(OC(F)(F)F)ccc(C(=O)Nc2nnnn2C)c1Cl [Compound 1.125] | 4 (4=60-79%) | 1 (1=0-19%) | 5 (5=80-100%) | 5 (5=80-100%) | 5 (5=80-100%) | 5 (5=80-100%) | 5 (5=80-100%) | 5 (5=80-100%) | 5 (5=80-100%) | 5 (5=80-100%) |  |  |  |  |  |  |  |  |  | 
CCC(=O)Nc1c(OC(F)F)ccc(C(=O)Nc2nnnn2C)c1C [Compound 1.126] |  |  |  |  |  |  |  |  |  |  | 3 (3=40-59%) | 2 (2=20-39%) | 5 (5=80-100%) | 5 (5=80-100%) | 5 (5=80-100%) | 4 (4=60-79%) | 5 (5=80-100%) | 5 (5=80-100%) | 5 (5=80-100%) | 5 (5=80-100%)
CCn1nnnc1NC(=O)c1ccc(OC(F)(F)F)c(NC(=O)C(C)F)c1Cl (stereo not shown) [Compound 1.127] | 2 (2=20-39%) | 3 (3=40-59%) | 5 (5=80-100%) | 5 (5=80-100%) | 5 (5=80-100%) | 5 (5=80-100%) | 5 (5=80-100%) | 5 (5=80-100%) | 5 (5=80-100%) | 5 (5=80-100%) |  |  |  |  |  |  |  |  |  | 
CCn1nnnc1NC(=O)c1ccc(OC(F)(F)F)c(NC(=O)c2ccccn2)c1Cl [Compound 1.128] | 1 (1=0-19%) | 1 (1=0-19%) | 3 (3=40-59%) | 5 (5=80-100%) | 4 (4=60-79%) | 5 (5=80-100%) | 5 (5=80-100%) | 5 (5=80-100%) | 5 (5=80-100%) | 5 (5=80-100%) |  |  |  |  |  |  |  |  |  | 
CCCn1nnnc1NC(=O)c1ccc(OC(F)(F)F)c(NC(C)=O)c1Cl [Compound 1.129] | 2 (2=20-39%) | 1 (1=0-19%) | 4 (4=60-79%) | 5 (5=80-100%) | 5 (5=80-100%) | 5 (5=80-100%) | 5 (5=80-100%) | 5 (5=80-100%) | 5 (5=80-100%) | 5 (5=80-100%) |  |  |  |  |  |  |  |  |  | 
